In patent US10392422B2, “Macrocyclic broad spectrum antibiotics” (priority 2014, dated 2019):
Converted amounts (≈) assume the structure as drawn. Like-named read-outs stand apart in the source and are kept apart here.

How the values were obtained:
Test in all cases: MIC, broth micro-dilution technique (CLSI)
[1] = system: Escherichia coli MC4100 harboring the IMP4213; type: cell-based; details: for MIC: Escherichia coli, 22 h; for MIC (μg/mL) E. coli: Table 1 protocol: serial 2-fold dilutions starting from 64 μg/ml
Method in brief: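 CLSI broth microdilution in cation-adjusted Mueller Hinton broth with 0.002% Tween-80. Ten 2-fold dilutions started from 64 μg/ml, or from 4 μg/mL in the modified protocol. Inoculum at final OD600 0.0005; MIC read after 22 h at 35 °C. E. coli strain carries imp4213 (increased outer-membrane permeability).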

[2] = system: Methicillin Resistant Staphylococcus aureus strain USA 300 (NRS384); type: cell-based; details: for MIC: Staphylococcus aureus, 22 h, read-out: MIC (μg/mL) S. aureus
Method in brief: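 Cation-adjusted MHB + 0.002% Tween-80; 10-point 2-fold series starting 64 μg/ml (modified protocol: 4 μg/mL). Final inoculum OD600 0.0005; 35° C, 22 h. MIC per CLSI M07-A8 broth microdilution.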

MRSA COL (NRS100) = type: cell-based, Staphylococcus aureus; details: for MIC: Staphylococcus aureus, 22 h, read-out: MIC (μg/mL) (COL)
Method: In vitro antimicrobial activity of each compound was determined by measuring minimal inhibitor concentrations (MICs) using the broth micro-dilution technique as approved by the Clinical and Laboratory Standards Institute (CLSI) (Methods for Dilution Antimicrobial Susceptibility Tests for Bacteria that Grow Aerobically; Approved Standard—Eighth Edition. CLSI document M07-A8. Wayne, Pa.: Clinical and Laboratory Standards; 2009). Antibacterial activity was measured against three strains of bacteria: a Methicillin Resistant Staphylococcus aureus strain USA 300 (NRS384); a MRSA COL (NRS100), another Methicillin Resistant Staphylococcus aureus strain; and a strain of Escherichia coli MC4100 harboring the IMP4213, which results in increased outer-membrane permeability (B Martin and Silhavy T. Imp/OstA is required for cell envelope biogenesis in Escherichia coli. (2002) Molecular Microbiology, 45(5), 1289-1302). Cells were inoculated onto plates of Trypyticase Soy Agar or Luria Agar respectively and grown at 35° C. for 20 hours. Inocula suspensions were prepared by scraping cells into 1 ml of testing media (cation adjusted Mueller Hinton Broth supplemented with 0.002% v/v Tween-80) and diluting to a final OD600 nm of 0.01.
Test compounds were prepared in DMSO at a concentration of 10 mg/ml. These compound stocks were diluted into testing media at a concentration of 64 μg/ml and serial 2-fold dilutions were made in the same media, in 96-well U bottom microtiter dishes, for a total of 10 compound concentrations (Table 1). In modified protocols (Table 2), compound stocks were diluted into testing media at a concentration of 4 μg/mL and serial 2-fold dilutions were made in the same media, in 96-well U bottom microtiter dishes, for a total of 10 compound concentrations. Inocula suspensions were added to the 2-fold serial dilutions of test compounds to a final density of OD OD600 nm of 0.0005 and incubated at 35° C. for 22 hours. […] The results from the protocol starting from a concentration of 64 µg/mL are listed in Table 1 and the results from the modified protocol are shown in Table 2.

[3] = read-out: MIC (μg/mL) E. coli, Table 1 protocol: serial 2-fold dilutions starting from 64 μg/ml, 35° C., 22 hours
[4] = Table 1 protocol: serial 2-fold dilutions starting from 64 μg/ml, 35° C., 22 hours

Structure (SMILES)	MIC [1, 3] [µg/mL]	MIC [2, 4] [µg/mL]	MIC (MRSA COL (NRS100); [4]) [µg/mL]	other results
C[C@H](NC(=O)CCC(=O)[C@H](C)NC(=O)[C@@H]1Cc2ccc(O)c(c2)-c2cc(ccc2O)[C@H](N(C)C(=O)[C@H](CCCCN)NC(=O)c2ccc(-c3ccc(Cl)cc3)cc2)C(=O)N[C@@H](C)C(=O)N1)C(=O)O [Compound 147]	> 64	–	–	MIC [2]: > 64 µg/mL; MIC (MRSA COL (NRS100)): > 64 µg/mL
CNC(=O)CCC(=O)[C@H](C)NC(=O)[C@@H]1Cc2ccc(O)c(c2)-c2cc(ccc2O)[C@H](N(C)C(=O)[C@H](CCCCN)NC(=O)c2ccc(-c3ccc(Cl)cc3)cc2)C(=O)N[C@@H](C)C(=O)N1 [Compound 149]	64 (≈ 71.4 µM)	> 64	64 (≈ 71.4 µM)	–
C[C@@H]1NC(=O)[C@@H](N(C)C(=O)[C@H](CCCCN)NC(=O)c2ccc(-c3ccc(Cl)cc3)cc2)c2ccc(O)c(c2)-c2cc(ccc2O)C[C@@H](C(=O)N[C@@H](C)C(=O)C(F)(F)C(=O)O)NC1=O [Compound 152]	–	–	–	MIC (μg/mL) E. coli ([1]; 35° C., 22 hours): 16 µg/mL (≈ 17.7 µM); MIC (μg/mL) S. aureus [2, 4]: 10 µg/mL (≈ 11 µM); MIC (μg/mL) (COL) (MRSA COL (NRS100); [4]): 4 µg/mL (≈ 4.42 µM)
C[C@@H]1NC(=O)[C@@H](N(C)C(=O)[C@H](CCCCN)NC(=O)c2ccc(-c3ccc(Cl)cc3)cc2)c2ccc(O)c(c2)-c2cc(ccc2O)C[C@@H](C(=O)N[C@@H](C)C(=O)N(C)[C@@H](CC(=O)O)C(N)=O)NC1=O [Compound 158]	64 (≈ 67 µM)	–	–	MIC [2]: 23 µg/mL (≈ 24.1 µM); MIC (MRSA COL (NRS100)): 8 µg/mL (≈ 8.37 µM)
C[C@@H]1NC(=O)[C@@H](N(C)C(=O)[C@H](CCCCN)NC(=O)c2ccc(-c3ccc(Cl)cc3)cc2)c2ccc(O)c(c2)-c2cc(ccc2O)C[C@@H](C(=O)N[C@@H](C)C(=O)N(C)[C@@H](CCC(=O)O)C(N)=O)NC1=O [Compound 159]	32 (≈ 33 µM)	23 (≈ 23.7 µM)	8 (≈ 8.25 µM)	–
C[C@@H]1NC(=O)[C@@H](N(C)C(=O)[C@H](CCCCN)NC(=O)c2ccc(-c3ccc(Cl)cc3)cc2)c2ccc(O)c(c2)-c2cc(ccc2O)C[C@@H](C(=O)N[C@@H](C)C(=O)N2CCCC23CCNC3=O)NC1=O (stereo partly drawn) [Compound 160]	64 (≈ 67.4 µM)	> 64	> 64	–
C[C@@H]1NC(=O)[C@@H](N(C)C(=O)[C@H](CCCCN)NC(=O)c2ccc(-c3ccc(Cl)cc3)cc2)c2ccc(O)c(c2)-c2cc(ccc2O)C[C@@H](C(=O)N[C@@H](C)C(=O)N2CCCC23CCNC3=O)NC1=O (stereo partly drawn) [Compound 161]	–	–	–	MIC (μg/mL) E. coli ([1]; 35° C., 22 hours): 64 µg/mL (≈ 67.4 µM); MIC (μg/mL) S. aureus [2, 4]: 64 µg/mL (≈ 67.4 µM); MIC (μg/mL) (COL) (MRSA COL (NRS100); [4]): 32 µg/mL (≈ 33.7 µM)
C[C@H](NC(=O)[C@@H]1Cc2ccc(O)c(c2)-c2cc(ccc2O)[C@H](N(C)C(=O)[C@H](CCCCN)NC(=O)c2ccc(-c3ccc(Cl)cc3)cc2)C(=O)N[C@@H](C)C(=O)N1)C(=O)CNS(C)(=O)=O [Compound 162]	32 (≈ 34.8 µM)	–	–	MIC [2]: 8 µg/mL (≈ 8.71 µM); MIC (MRSA COL (NRS100)): 2 µg/mL (≈ 2.18 µM)
CCCCCCCCCCNCCS(=O)(=O)N[C@@H](CCCCN)C(=O)N(C)[C@@H]1C(=O)N[C@@H](C)C(=O)N[C@H](C(=O)N[C@@H](C)C(C)=O)Cc2ccc(O)c(c2)-c2cc1ccc2O [Compound 163]	16 (≈ 18.6 µM)	0.13 (≈ 0.151 µM)	0.11 (≈ 0.128 µM)	–
C[C@H](NC(=O)[C@@H]1Cc2ccc(O)c(c2)-c2cc(ccc2O)[C@H](N(C)C(=O)[C@H](CCCCN)NC(=O)c2ccc(-c3ccc(Cl)cc3)cc2)C(=O)N[C@@H](C)C(=O)N1)C(=O)CP(=O)(O)O [Compound 166]	–	–	–	MIC ([1]; read-out: MIC (μg/mL) E. coli): > 64 µg/mL; MIC [2]: 32 µg/mL (≈ 35.3 µM); MIC (MRSA COL (NRS100)): 8 µg/mL (≈ 8.84 µM)
COP(=O)(O)CC(=O)[C@H](C)NC(=O)[C@@H]1Cc2ccc(O)c(c2)-c2cc(ccc2O)[C@H](N(C)C(=O)[C@H](CCCCN)NC(=O)c2ccc(-c3ccc(Cl)cc3)cc2)C(=O)N[C@@H](C)C(=O)N1 [Compound 167]	–	–	–	MIC ([1]; read-out: MIC (μg/mL) E. coli): > 64 µg/mL; MIC [2]: 16 µg/mL (≈ 17.4 µM); MIC (MRSA COL (NRS100)): 4 µg/mL (≈ 4.35 µM)
C[C@@H]1NC(=O)[C@@H](N(C)C(=O)[C@H](CCCCN)NC(=O)c2ccc(-c3ccc(Cl)cc3)cc2)c2ccc(O)c(c2)-c2cc(ccc2O)C[C@@H](C(=O)N[C@@H](C)C(=O)N2CSC[C@@H]2C(N)=O)NC1=O [Compound 175]	32 (≈ 34 µM)	> 64	32 (≈ 34 µM)	–
C[C@@H]1NC(=O)[C@@H](N(C)C(=O)[C@H](CCCCN)NC(=O)c2ccc(-c3ccc(Cl)cc3)cc2)c2ccc(O)c(c2)-c2cc(ccc2O)C[C@@H](C(=O)N[C@@H](C)C(=O)N2C[C@@H](O)C[C@H]2C(N)=O)NC1=O [Compound 177]	64 (≈ 68.1 µM)	16 (≈ 17 µM)	4 (≈ 4.26 µM)	–
C[C@H](NC(=O)[C@@H]1CCCN1C(=O)[C@H](C)NC(=O)[C@@H]1Cc2ccc(O)c(c2)-c2cc(ccc2O)[C@H](N(C)C(=O)[C@H](CCCCN)NC(=O)c2ccc(-c3ccc(Cl)cc3)cc2)C(=O)N[C@@H](C)C(=O)N1)C(N)=O [Compound 179]	64 (≈ 64.4 µM)	–	–	MIC [2]: 32 µg/mL (≈ 32.2 µM); MIC (MRSA COL (NRS100)): 16 µg/mL (≈ 16.1 µM)
C[C@@H]1NC(=O)[C@@H](N(C)C(=O)[C@H](CCCCN)NC(=O)c2ccc(-c3ccc(Cl)cc3)cc2)c2ccc(O)c(c2)-c2cc(ccc2O)C[C@@H](C(=O)N[C@@H](C)C(=O)N(C)CC(N)=O)NC1=O [Compound 182]	64 (≈ 71.3 µM)	10 (≈ 11.1 µM)	2 (≈ 2.23 µM)	–
C[C@@H]1NC(=O)[C@@H](N(C)C(=O)[C@H](CCCCN)NC(=O)c2ccc(-c3ccc(Cl)cc3)cc2)c2ccc(O)c(c2)-c2cc(ccc2O)C[C@@H](C(=O)N[C@@H](C)C(=O)N(C)[C@@H](C)C(N)=O)NC1=O [Compound 183]	32 (≈ 35.1 µM)	8 (≈ 8.78 µM)	2.4 (≈ 2.63 µM)	–
C[C@@H]1NC(=O)[C@@H](N(C)C(=O)[C@H](CCCCN)NC(=O)c2ccc(-c3ccc(Cl)cc3)cc2)c2ccc(O)c(c2)-c2cc(ccc2O)C[C@@H](C(=O)N[C@@H](C)C(=O)N2CCC[C@H]2C(=O)NN)NC1=O [Compound 186]	> 64	45 (≈ 47.9 µM)	12 (≈ 12.8 µM)	–
CCCCCCCCCCNCCC(=O)N[C@@H](CCCCN)C(=O)N(C)[C@@H]1C(=O)N[C@@H](C)C(=O)N[C@H](C(=O)N[C@@H](C)C(=O)N(C)[C@H]2CCNC2=O)Cc2ccc(O)c(c2)-c2cc1ccc2OCCN [Compound 187]	23 (≈ 23.9 µM)	3.7 (≈ 3.84 µM)	0.5 (≈ 0.519 µM)	–
CC(NC(=O)[C@@H]1Cc2ccc(O)c(c2)-c2cc(ccc2O)[C@H](N(C)C(=O)[C@H](CCCCN)NC(=O)c2ccc(-c3ccc(Cl)cc3)cc2)C(=O)N[C@@H](C)C(=O)N1)C(=O)c1ncco1 (stereo partly drawn) [Compound 188]	11 (≈ 12.5 µM)	16 (≈ 18.2 µM)	4 (≈ 4.55 µM)	–
C[C@H](NC(=O)[C@@H]1Cc2ccc(O)c(c2)-c2cc(ccc2O)[C@H](N(C)C(=O)[C@H](CCCCN)NC(=O)c2ccc(-c3ccc(Cl)cc3)cc2)C(=O)N[C@@H](C)C(=O)N1)C(=O)CC(N)=O [Compound 189]	32 (≈ 36.8 µM)	5.7 (≈ 6.56 µM)	2 (≈ 2.3 µM)	–
CCCCCCCCCCNCCC(=O)N[C@@H](CCCCN)C(=O)N(C)[C@@H]1C(=O)N[C@@H](C)C(=O)N[C@H](C(=O)N[C@@H](C)C(=O)N2CCC[C@H]2C(N)=O)Cc2ccc(O)c(c2)-c2cc1ccc2OCCN [Compound 190]	32 (≈ 33.2 µM)	1.7 (≈ 1.76 µM)	0.25 (≈ 0.26 µM)	–
COC(=O)CC(=O)[C@H](C)NC(=O)[C@@H]1Cc2ccc(O)c(c2)-c2cc(ccc2O)[C@H](N(C)C(=O)[C@H](CCCCN)NC(=O)c2ccc(-c3ccc(Cl)cc3)cc2)C(=O)N[C@@H](C)C(=O)N1 [Compound 191]	> 64	32 (≈ 36.2 µM)	8 (≈ 9.06 µM)	–
C[C@H](NC(=O)[C@@H]1Cc2ccc(O)c(c2)-c2cc(ccc2O)[C@H](N(C)C(=O)[C@H](CCCCN)NC(=O)c2ccc(-c3ccc(Cl)cc3)cc2)C(=O)N[C@@H](C)C(=O)N1)C(=O)Cc1c[nH]nn1 [Compound 192]	64 (≈ 71.7 µM)	11 (≈ 12.3 µM)	2 (≈ 2.24 µM)	–
